One data set addresses T1, human RORγt (Homo sapiens, UniProt P51449).
T1 construct: the full-length cDNA of human RORγt; expressed in transfected cells; host or cells: COS-7 (monkey kidney)
T1 sequence (P51449 1-497 isoform P51449-2): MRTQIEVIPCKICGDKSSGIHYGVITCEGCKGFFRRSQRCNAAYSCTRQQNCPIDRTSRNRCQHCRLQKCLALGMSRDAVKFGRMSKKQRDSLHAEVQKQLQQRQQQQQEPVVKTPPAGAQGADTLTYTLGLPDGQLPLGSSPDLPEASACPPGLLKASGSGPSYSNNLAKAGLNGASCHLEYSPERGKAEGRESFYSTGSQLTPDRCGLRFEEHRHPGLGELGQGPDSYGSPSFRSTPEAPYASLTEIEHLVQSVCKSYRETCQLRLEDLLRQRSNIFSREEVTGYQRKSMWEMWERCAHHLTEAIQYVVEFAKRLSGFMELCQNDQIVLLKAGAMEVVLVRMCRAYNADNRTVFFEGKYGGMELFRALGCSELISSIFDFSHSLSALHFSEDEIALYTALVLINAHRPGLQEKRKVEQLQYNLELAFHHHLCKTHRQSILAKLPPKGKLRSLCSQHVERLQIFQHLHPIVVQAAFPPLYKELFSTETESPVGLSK
Nature of the data set: RORE Luciferase/RORγt transactivation assay. The class given is cell-based. The settings on record: COS-7 cells transfected with human IL-17 promoter luciferase reporter and RORγt plasmid; 20 h with compound; read-out: IC50, RORγt activity inhibition. The gist of the method: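 COS-7 cells were transiently co-transfected with a human IL-17 promoter (RORE/CNS)–luciferase reporter and a RORγt expression plasmid, then seeded at 10000 cells/well in serum-free, phenol red-free DMEM. Compounds were added at 0.3% DMSO final. Luciferase was read with Steady-Glo, and IC50 and Emax were derived.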
In general terms: In a reporter assay the amount or activity of a reporter protein is the signal.

Data set [1] has as its system Murine EL-4 lymphoma cell line overexpressing human RORγt. Briefly: IL-17 secretion from EL4 murine lymphoma. The class given is cell-based. The settings on record: Mus musculus; human RORγt-transfected EL4 cells, PMA (10 ng/mL) and ionomycin (1 μM), 24 h; read-out: IC50, IL-17 secretion inhibition. The procedure: Murine EL-4 lymphoma cell line overexpressing human RORγt was used in this functional assay to assess compound ability to inhibit IL-17 cytokine secretion.
EL-4 cells are maintained in a standard culture medium RPMI supplemented with 10% fetal calf serum, 1% sodium pyruvate, 1% essential amino acids and 1% antibiotics at 37° C. in a humidified atmosphere of 5% CO02 and 95% air. Culture medium was changed every 2 days. EL4 cells were transfected with a plasmid encoding hRORγt (sequence identical to published sequence NM 001001523). […] Briefly, 1 μg of DNA/1 million cells was served to transfect EL-4 cells. Cell/DNA suspension was transferred into certified cuvette and the electroporation of RORγt plasmid was carried out using appropriate Nucleofector® program.
Cells were seeded in 96 well plates at a density of 150000 cells/I well then treated with compounds of this invention at indicated concentrations and incubated for 24 hours at 37° C. in a humidified atmosphere of 5% C02 and 95% air. EL-4 cells were pretreated with test compounds (RORγ modulators) and stimulated with PMA (10 ng/mL) and ionomycin (1 μM final concentration) in the presence of test compound concentrations for additional 24 h at 37° C. in a humidified atmosphere of 5% C02 and 95% air. Subsequently, supernatants were collected (after centrifugation at 300 g for 10 minutes) to determine the concentrations of IL-17 by HTRF (CisBio, France) or ELISA (R&D Systems Europe) according to the manufacturer's protocols.

As a reminder, the IC50 is the midpoint of a concentration-inhibition curve. For orientation: melting point means the temperature of the solid-liquid transition.

Each structure is given as a SMILES string. Where only a bound is given, the exact number is not on record here.

Regarding `COc1ccc(C(NC(=O)Cc2ccc3[nH]c(=O)cc(C)c3c2)c2ccccc2)c(N2CCCCC2)c1` (stereo not drawn) [Cpd. 10, N-{[4-methoxy-2-(piperidin-1-yl)phenyl](phenyl)methyl}-2-(4-methyl-2-oxo-1,2-dihydroquinolin-6-yl)acetamide], the IC50 (at human RORγt; in data set [1]) was 1000 to 10000 nM each time.

In the case of `Cc1ccc(C(NC(=O)Cc2ccc3c(c2)CS(=O)(=O)N3)c2ccc(C)o2)c(Br)c1` (stereo not drawn) [Cpd. 28, N-[(2-bromo-4-methylphenyl)(5-methylfuran-2-yl)methyl]-2-(2,2-dioxo-1,3-dihydro-2,1-benzothiazol-5-yl)acetamide], the IC50 at human RORγt was in the range of 100 to 1000 nM; in data set [1] it was 1000 to 10000 nM.

Regarding `Cc1ccc(C(NC(=O)Cc2ccc3c(c2)OCC(=O)N3)c2ccc(C)o2)c(Br)c1` (stereo not drawn) [Cpd. 31, N-[(2-bromo-4-methylphenyl)(5-methylfuran-2-yl)methyl]-2-(3-oxo-3,4-dihydro-2H-1,4-benzoxazin-7-yl)acetamide], the half-maximal inhibitory concentration (IC50) fell in the range of 10 to 100 nM on human RORγt and 100 to 1000 nM in data set [1].

As to `Cc1ccc(C(NC(=O)Cc2ccc3c(c2)OCC(=O)N3)c2ccc(C)o2)c(C)c1` (stereo not drawn) [Cpd. 33, N-[(2,4-dimethylphenyl)(5-methylfuran-2-yl)methyl]-2-(3-oxo-3,4-dihydro-2H-1,4-benzoxazin-7-yl)acetamide], the IC50 (at human RORγt; in data set [1]) was 100 to 1000 nM each time.

With `Cc1ccc(C(NC(=O)Cc2ccc3c(c2)OCC(=O)N3)c2ccc(C)o2)c(N2CCCCC2)c1` (stereo not drawn) [Cpd. 35, N-{[4-methyl-2-(piperidin-1-yl)phenyl](5-methylfuran-2-yl)methyl}-2-(3-oxo-3,4-dihydro-2H-1,4-benzoxazin-7-yl)acetamide], the IC50 was 10 to 100 nM at human RORγt and less than 100 nM in data set [1].

In the case of `Cc1ccc(C(NC(=O)Cc2ccc3c(c2)CCC(=O)N3)c2ccc(C)o2)c(Br)c1` (stereo not drawn) [Cpd. 36, N-[(2-bromo-4-methylphenyl)(5-methylfuran-2-yl)methyl]-2-(2-oxo-1,2,3,4-tetrahydroquinolin-6-yl)acetamide], the IC50 (on human RORγt; in data set [1]) was 100 to 1000 nM throughout.

Regarding `Cc1ccc(C(NC(=O)Cc2ccc3c(c2)C(=NN)C(=O)N3)c2ccc(C)o2)c(N2CCCCC2)c1` (stereo not drawn) [Cpd. 37, 2-(3-hydrazinylidene-2-oxo-2,3-dihydro-1H-indol-5-yl)-N-{[4-methyl-2-(piperidin-1-yl)phenyl](5-methylfuran-2-yl)methyl}acetamide], the results for the IC50 (on human RORγt; in data set [1]) were 10 to 100 nM and 100 to 1000 nM, respectively.

On to `Cc1ccc(C(NC(=O)Cc2ccc3c(c2)CC(=O)N3C)c2ccc(C)o2)c(N2CCCCC2)c1` (stereo not drawn) [Cpd. 38, N-{[4-methyl-2-(piperidin-1-yl)phenyl](5-methylfuran-2-yl)methyl}-2-(1-methyl-2-oxo-2,3-dihydro-1H-indol-5-yl)acetamide], for which the IC50 is 10 to 100 nM at human RORγt and 100 to 1000 nM in data set [1].

`Cc1ccc(C(NC(=O)Cc2ccc3c(c2)C(C)C(=O)N3)c2ccc(C)o2)c(N2CCCCC2)c1` (stereo not drawn) [Cpd. 49, N-{[4-methyl-2-(piperidin-1-yl)phenyl](5-methylfuran-2-yl)methyl}-2-(3-methyl-2-oxo-2,3-dihydro-1H-indol-5-yl)acetamide] returned a melting point of 102 °C. Further, the IC50 at human RORγt is 10 to 100 nM.

Regarding `Cc1ccc(C(NC(=O)Cc2ccc3c(c2)/C(=N/N)C(=O)N3)c2ccc(C)o2)c(N2CCCCC2)c1` (stereo not drawn) [Cpd. 84, 2-[(3Z)-3-hydrazinylidene-2-oxo-2,3-dihydro-1H-indol-5-yl]-N-{[4-methyl-2-(piperidin-1-yl)phenyl](5-methylfuran-2-yl)methyl}acetamide], the 50% inhibitory concentration (IC50) in data set [1] is 100 to 1000 nM.

Regarding `Cc1ccc(C(NC(=O)C2(c3ccc4c(c3)CCN4)CC2)c2ccc(C)o2)c(C)c1` (stereo not drawn) [Cpd. 142, 1-(2,3-dihydro-1H-indol-5-yl)-N-[(2,4-dimethylphenyl)(5-methylfuran-2-yl)methyl]cyclopropane-1-carboxamide], the melting point was found to be 57 °C. For the same molecule, at human RORγt, the IC50 is 10 to 100 nM.

The values are drawn from patent US11052092B2, “N-{[2-(piperidin-1-yl)phenyl](phenyl)methyl}-2-(3-oxo-3,4-dihydro-2H-1,4-benzoxazin-7-yl)acetamide derivatives and related compounds as ROR-gamma modulators for treating autoimmune diseases” (Genfit, priority 2017, dated 2021).
